According to ChEMBL document CHEMBL2074156, “Inhibition of P-glycoprotein activity and reversal of multidrug resistance in vitro by rosemary extract” (Eur J Cancer, 1999):

Target: ATP-dependent translocase ABCB1 (Homo sapiens, UniProt P08183)
Experiment: TP_TRANSPORTER: inhibition of Doxorubicin and Vinblastine efflux in drug-resistant MCF-7 cells
Type: functional, cell-based
Conditions: mcf7

ATP-dependent translocase ABCB1, sequence (P08183 whole entry): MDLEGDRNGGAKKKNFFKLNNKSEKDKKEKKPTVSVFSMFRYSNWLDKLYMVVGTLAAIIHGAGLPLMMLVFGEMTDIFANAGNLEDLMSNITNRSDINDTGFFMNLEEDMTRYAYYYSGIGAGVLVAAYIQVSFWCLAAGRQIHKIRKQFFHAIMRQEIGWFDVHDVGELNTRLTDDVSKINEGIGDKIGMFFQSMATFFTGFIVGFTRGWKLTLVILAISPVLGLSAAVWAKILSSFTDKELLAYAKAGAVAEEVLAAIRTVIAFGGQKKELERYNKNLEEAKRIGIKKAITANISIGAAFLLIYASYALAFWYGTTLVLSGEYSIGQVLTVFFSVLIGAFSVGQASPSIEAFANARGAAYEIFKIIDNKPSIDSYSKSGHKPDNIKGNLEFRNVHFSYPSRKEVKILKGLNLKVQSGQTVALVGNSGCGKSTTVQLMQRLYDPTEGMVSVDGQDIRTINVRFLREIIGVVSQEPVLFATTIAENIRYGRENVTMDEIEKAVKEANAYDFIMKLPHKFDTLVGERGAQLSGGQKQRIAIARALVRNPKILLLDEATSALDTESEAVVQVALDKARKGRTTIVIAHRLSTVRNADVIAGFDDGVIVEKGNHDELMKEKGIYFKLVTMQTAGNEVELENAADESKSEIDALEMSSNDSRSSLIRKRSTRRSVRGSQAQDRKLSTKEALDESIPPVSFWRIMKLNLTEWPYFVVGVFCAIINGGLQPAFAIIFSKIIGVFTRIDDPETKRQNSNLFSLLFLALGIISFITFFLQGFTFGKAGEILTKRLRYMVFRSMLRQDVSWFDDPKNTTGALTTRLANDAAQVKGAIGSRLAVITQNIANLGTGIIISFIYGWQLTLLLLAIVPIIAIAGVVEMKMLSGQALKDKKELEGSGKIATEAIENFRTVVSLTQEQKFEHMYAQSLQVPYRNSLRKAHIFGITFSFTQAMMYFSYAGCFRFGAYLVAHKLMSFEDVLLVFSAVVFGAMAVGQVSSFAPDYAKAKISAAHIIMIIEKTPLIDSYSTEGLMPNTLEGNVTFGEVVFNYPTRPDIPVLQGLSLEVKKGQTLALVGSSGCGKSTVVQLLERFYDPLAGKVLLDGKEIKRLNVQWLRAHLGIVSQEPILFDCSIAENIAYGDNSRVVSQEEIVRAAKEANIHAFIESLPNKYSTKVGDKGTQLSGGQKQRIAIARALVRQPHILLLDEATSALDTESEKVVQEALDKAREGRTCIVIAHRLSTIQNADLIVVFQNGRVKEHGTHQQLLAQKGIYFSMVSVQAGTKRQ

ROSEMARY EXTRACT
Activity: inhibitor [+]
